Experimental data: a melting point compilation (Tetko et al.; mined from patent text by program, amines drawn as free bases though some values may be those of a salt)
Residues, ends and D or L forms follow the SMILES beside them.

Row | SMILES | melting point
1 | CCc1nc(N)nc(O)c1I | 199 to 200 °C
2 | Cc1cccc2c1n(CCS(C)(=O)=O)c(=O)n2C(=O)N[C@H](C(=O)N(C)C)C(C)(C)C | 191 °C
3 | COC(=O)C(Cc1ccccc1)NC(=O)C(CC(=O)O)NC(=O)C(N)CO (stereo not drawn) (H-Ser-Asp-Phe-OMe; configuration not given here) | 196 to 199 °C
4 | Cc1ccc(C)c2c1C[C@@H](O)[C@@H]2Oc1cc(C(=O)N(C)C)cc2c1nc(C)n2C (relative stereo) | 134 °C
5 | CCCc1nc2c(N)nc3cc(OCc4ccccc4)ccc3c2n1CC(C)C | 206 to 208 °C
6 | O=C(Oc1ccccc1)OC1CN(C(=O)Oc2ccccc2)CCC1c1ccccc1 (stereo not drawn) | 153 to 154 °C
7 | CN1Cc2c(C(N)=O)ncn2-c2cccc(Br)c2C1=O | 278 to 279 °C
8 | CC12CC(N3CCC4(CC3)OCCO4)C(O)CC1CCC1C2CCC2(C)C(O)C(N3CCCC3)CC12 (stereo not drawn) | 184 to 187 °C
9 | O=C(O)CC1=CCCCC1n1nc(-c2c(-c3ccccc3)nn3ccccc23)ccc1=O (stereo not drawn) | 164 to 166 °C
10 | CCSCCCCCCCCCCC(=O)O | 58 to 61 °C
11 | Cc1c(Nc2c(C#N)cnc3scc(CO)c23)ccc2[nH]ccc12 | 230 °C
12 | CC(C)=CC#Cc1cc(C)cc(Oc2cc(C(F)(F)F)nn2C)n1 | 85 °C
13 | COc1ccc(OC)c2c1C(=O)OC2=O | 265 to 268 °C
14 | CNc1nc(-c2cncc(C#Cc3cccnc3)c2)c2cc(OC)c(OC)cc2n1 | 208 to 211 °C
15 | CNc1nc(-c2cccc(CCc3ccccc3)c2)c2cc(OC)c(OC)cc2n1 | 95 to 97 °C
16 | Cc1ccc2cccc(OCc3c(Cl)ccc(S(=O)(=O)N4CCC[C@H]4C(=O)NCCCNC(=O)c4ccc(C#N)cc4)c3Cl)c2n1 | 78 to 80 °C
17 | CN1CCC2(c3cccc(O)c3)CCCC2C1 (stereo not drawn) | 151 to 153 °C
18 | CCOC(=O)c1sccc1S(N)(=O)=O | 136 °C
19 | CCCCCCCCCCCCCCN=C=S | 77 to 79 °C
20 | N#CCOc1ccc(O)c([N+](=O)[O-])c1 | 113 to 114 °C
21 | COC(=O)c1ncn2c1CN(C)C(=O)c1ccccc1-2 | 212 to 214 °C
22 | O=C(C=CCc1c[nH]c2ccccc12)NC(C(=O)OCc1ccccc1)C(=O)OCc1ccccc1 | 162 to 163 °C
23 | CCn1cc(C(=O)O)c(=O)c2cc(F)c(N3CCCC3)nc21 | 299 to 300 °C
24 | O=C1C(=O)c2ccccc2C2=C1SCC1(CCSCC1)O2 | 221 to 223 °C
25 | CC(CCCCCCCCCCCCC(=O)O)CC(=O)O (stereo not drawn) | 77 to 78 °C

Row | SMILES | melting point
26 | CC[C@H](C1CC1)n1cc(Cl)nc(N2CCc3cc(OC)cc(Br)c32)c1=O | 138 to 140 °C
27 | CNS(=O)(=O)OCCOc1ccc(-n2ccnc2)cc1 | 85 to 88 °C
28 | Cc1c(N2CCC3(CC3N)C2)c(F)c(N)c2c(=O)c(C(=O)O)cn([C@@H]3C[C@@H]3F)c12 (stereo partly drawn) | 118 to 120 °C
29 | CCOc1nc(C(F)(F)F)cc(=O)n1-c1cc(OC)c(Cl)cc1F | 117 to 119 °C
30 | O=C(O)c1nc2c(NCc3ccccc3)ncnc2n1C1OC(CO)C(O)C1O (stereo not drawn) | 125 to 127 °C
31 | CC(C)Cn1c(C(F)(F)F)nc2cc(F)c(-n3c(=O)cc(C(F)(F)F)n(C)c3=O)cc21 | 169 to 170 °C
32 | COc1ccccc1C1(C(C)(C)O)CCN(C)CC1 | 110 to 111 °C
33 | Cc1cc(C)cc(CCCn2c(=O)[nH]c3cc(Cl)cc(Cl)c3c2=O)c1 | 205 to 208 °C
34 | Cc1ccnc(NC#N)n1 | 203 °C
35 | Cn1c(C(F)(F)F)cc(=O)n(-c2ccc3snc(CCl)c3c2)c1=O | 201 to 203 °C
36 | CC(C)(C)c1ccc2cc3cc(C(C)(C)C)ccc3cc2c1 | 249 to 253 °C
37 | O=C(O)C(CCOc1ccccc1)CCOc1ccccc1 | 85 to 86 °C
38 | CN1C(=O)C(c2ccccc2)(C2CCNCC2)N=C1N (stereo not drawn) | 269 to 271 °C
39 | CCNc1nc(SC)ncc1C=O | 58 to 61 °C
40 | NC/C=C/COc1ccc(-n2ccnc2)cc1 | 81 to 83 °C
41 | Cc1oc(C2=NOC(c3cc(Cl)cc(Cl)c3)(C(F)(F)F)C2)cc1C(=O)NCC(=O)NCC(F)(F)F (stereo not drawn) | 172 to 174 °C
42 | CC(=O)OCC1OC(n2cc(C(Br)=CBr)c(=O)[nH]c2=O)C(OC(C)=O)C1OC(C)=O (stereo not drawn) | 83 to 85 °C
43 | Cc1nc2scc(C)n2c(=O)c1CCN1CCC(Nc2nc3ccccc3n2Cc2ccc(F)cc2)CC1 | 141 °C
44 | CCCCCCCCCCCCc1ccc(S(=O)(=O)Nc2nnc(CCCCCN(C)c3ccc([N+](=O)[O-])c4nonc34)s2)cc1 | 102 to 104 °C
45 | CC(C)(C)c1ccc(OC(CC(=O)O)C(=O)O)c(C(C)(C)C)c1 (stereo not drawn) | 177 to 181 °C
46 | CCCCCCCCCCCCCCC(=O)Nc1ccn(C2OC(CO)C(O)C2O)c(=O)n1 (stereo not drawn) | 142 to 145 °C
47 | Cc1cc(C)c2ncc(C#N)c(-c3ccccc3Cl)c2c1 | 153 to 154 °C
48 | CCOC(=O)CCC(=O)c1c(COC(C)=O)c(COC(C)=O)cc2cc(OC)c(OC)cc12 | 85 to 87 °C
49 | CN(C)CCc1cccc(OCCCNc2nc(N)nn2C)c1 | 81 to 82 °C

Now from value to molecule:

Row | melting point | SMILES
50 | 210 to 212 °C | CC(=O)Nc1ccc(CC(=S)N2CCOCC2)cc1
51 | 169 °C | O=C(N[C@H]1C[C@H](C(=O)O)Nc2cc(Cl)cc(Cl)c21)OCc1ccccc1 (relative stereo)
52 | 115 to 117 °C | O=[N+]([O-])c1ccc(CN2CCNS2(=O)=O)cc1
53 | 75 to 77 °C | COC(=O)c1cc(Cl)cc(Cl)n1
54 | 148 to 151 °C | CONC(=O)NC1CCC(=O)c2ccccc21 (stereo not drawn)
55 | 230 to 232 °C | Cc1cccc(-c2nc(N)sc2-c2ccnc(-c3ccc(C(=O)NC4CCOCC4)cc3)c2)n1
56 | 191 °C | O=C(O)CNC(=O)c1nc2ccccc2cc1O
57 | 204 to 206 °C | O=C1Nc2ccccc2CN1C1CCN(Cc2ccccc2)CC1
58 | > 275 °C | O=c1c2ccc(Cl)cc2[nH]c2c(O)nn(Cc3cccc(-c4nnn[nH]4)c3)c(=O)c12
59 | 221 to 222 °C | NC(=O)NN=Cc1ccc(Oc2ccc([N+](=O)[O-])cc2)cc1
60 | 214 °C | CC(=O)N1CCC(Nc2nc3ccccc3n2Cc2ccc(CO)o2)CC1
61 | 214 to 216 °C | O=C(c1ccccc1)c1c[nH]c2ccc(OCc3ccc4ccccc4n3)cc12
62 | 232 to 235 °C | CC(C)(C)c1cc(C(=O)Nc2cnc3ccc(Cl)cc3c2-c2ccccc2)cc(C(C)(C)C)c1O
63 | 106 to 111 °C | O=C(O)C(Oc1ccc(F)cc1)c1ccc(Oc2ccc(Cl)cc2)cc1 (stereo not drawn)
64 | 102 to 103 °C | Cc1ccc(C[C@@H](C(=O)O)[C@@H](O)c2ccc(F)cc2)cc1OC(F)(F)C(F)F (racemic)
65 | 267 °C | O=c1[nH]c2cc(Cl)ccc2n1C1CCN(CCCn2c(=S)[nH]c3ccccc32)CC1
66 | 206 °C | O=c1oc2cccc(O)c2c(OCCN2CCOCC2)c1-c1ccccc1
67 | 141 to 143 °C | CC(=O)NCC1CC(c2ccc(N3CCCC3)c(F)c2)=NO1 (stereo not drawn)
68 | 85 °C | CCCCC[C@H]1CC[C@H](c2ccc(CC(=O)OCc3ccc(C#N)cc3)cc2)CC1
69 | 148 to 149 °C | Fc1cccc(F)c1C1=NC(c2ccc(-c3ccc(C(F)(F)F)cc3)cc2)CO1 (stereo not drawn)
70 | 81 to 86 °C | CCCN(c1ccncc1)n1cc(C(C)=O)c2ccccc21
71 | 161 to 162 °C | COc1ccc(CC(=O)Nc2ccc3c(c2)[C@@H](OCCc2ccccc2)[C@H](O)C(C)(C)O3)cc1 (relative stereo)
72 | 131 °C | COc1cc(O)c(C(=O)C=Cc2ccc(OCc3ccccc3)c(OC)c2)c(OC)c1
73 | 108 °C | FC(F)(F)c1nncn1-c1ccc(Cl)cc1
74 | 81 °C | Cc1ccc(S(=O)(=O)Oc2ccc(C(C)(C)C)cc2C(C)(C)C)cc1

Row | melting point | SMILES
75 | 165 to 168 °C | CCCONC(=O)c1nc(-c2ccc(Cl)c(OC)c2F)cc(N)c1Cl
76 | 167 to 169 °C | CC(=CC(=O)O)c1ccc([N+](=O)[O-])cc1
77 | 105 to 106 °C | CN(CCc1ccc(O)c(O)c1)C(=O)OCc1ccccc1
78 | 145 to 147 °C | COc1cc(NC(=O)N2CCOCN2)c(F)cc1Cl
79 | 206 °C | CCOC(=O)C1C(=O)Nc2ccccc2SC1c1ccc(Cl)cc1 (stereo not drawn)
80 | 130 to 132 °C | C[C@@H](O)C(=O)NC[C@H]1CCc2ccc(S(=O)(=O)c3ccccc3)cc2O1
81 | 93.5 to 94.5 °C | COCOc1cc(CCC(=O)c2c(OC)cc(OC)c(CCC(C)C)c2O)ccc1OC
82 | 205 to 206 °C | COC(=O)c1ccc(-c2cc(-c3ccccc3)no2)cc1
83 | 177 to 180 °C | COC(=O)c1cn(C2=CC(C)(C)Oc3ccc(C#N)cc32)c2ccccc12
84 | 66 to 68 °C | CCC(=O)c1ccc(-c2ccc(Cl)cc2)o1
85 | 196 to 198 °C | Cc1nc2ccccc2n1Cc1ccc(C(=O)N(C)C2CCNCC2)cc1
86 | 206 to 209 °C | FC(F)(F)c1ccc(-c2cc(Oc3ccc4cc[nH]c4c3)ncn2)cc1
87 | 186 to 187 °C | COc1ccc(C(=O)O)cc1Oc1ccccc1
88 | 95 to 97 °C | CCOC(=O)C(Cc1ccc(Cl)cc1SCc1ccc(OC)cc1)(CC(C)C)C(=O)OCC
89 | 111 to 112 °C | O=C(O)CCCc1ccc(C(=O)C=Cc2ccccc2)cc1
90 | 257 °C | CCC(=O)NS(=O)(=O)c1ccc(-c2cc(-c3nc(-c4ccc(C(F)(F)F)cc4)cc(C(F)(F)F)n3)ccn2)s1
91 | 84 °C | CCCCOc1ccc(S(=O)(=O)C2(C(=O)O)CCN(CCCOc3ccccc3)CC2)cc1
92 | 274 °C | Nn1cc(C(=O)O)c(=O)c2cc(F)c(Cl)cc21
93 | 258 to 260 °C | O=C(NC1CCCC1)c1ccc(-c2ccc3c(c2)CCN(CCN2CCCC2)C3=O)cc1
94 | 234 °C | CC(=O)Nc1ccc2oc3c(OC(F)F)ccc(C(=O)Nc4c(Cl)cncc4Cl)c3c2c1
95 | 158 to 160 °C | Cc1ccc(-c2ccc3c(c2)C=C(CNc2ccc(CN(C)C4CCOCC4)cc2)CCO3)cc1
96 | 240 °C | Cc1cccc(NC(=O)NCC(=O)N(c2ccccc2)c2ccccc2)c1
97 | 41 to 41.5 °C | CCCCCCCCOc1ccc(C2CN=C(c3c(F)cccc3Cl)S2)cc1 (stereo not drawn)
98 | 86 to 87 °C | CCCCCCCCCCCCCCOc1ccc(CC(=O)NCc2ccccn2)cc1
